Results as given in ChEMBL document CHEMBL1201862, “PubChem BioAssay data set” (2004).
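Results reflect a 48-hour exposure of cells in 96-well plates to compound at five concentrations. GI50: concentration for 50% inhibition of growth.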 The source made the active and inactive calls. Rule as the data show it: active = GI50 up to about 1.1 µM and inactive = higher.

Legend:
Assay in all cases: NCI-60 cell line screen, 48 h
786-0 = tested on: 786-0
CCRF-CEM = tested on: CCRF-CEM
COLO 205 = tested on: COLO 205
HL-60 = tested on: HL-60
HT-29 = tested on: HT-29
IGROV-1 = tested on: IGROV-1
M14 = tested on: M14
NCI-H522 = tested on: NCI-H522
OVCAR-4 = tested on: OVCAR-4
RPMI-8226 = tested on: RPMI-8226
SF-268 = tested on: SF-268
SK-MEL-2 = tested on: SK-MEL-2
SK-MEL-5 = tested on: SK-MEL-5
SNB-19 = tested on: SNB-19
UACC-62 = tested on: UACC-62
UO-31 = tested on: UO-31
A498 = tested on: A498
TK-10 = tested on: TK-10

| Compound | GI50 (786-0) | GI50 (CCRF-CEM) | GI50 (COLO 205) | GI50 (HL-60) | GI50 (HT-29) | GI50 (IGROV-1) | GI50 (M14) | GI50 (NCI-H522) | GI50 (OVCAR-4) | GI50 (RPMI-8226) | GI50 (SF-268) | GI50 (SK-MEL-2) | GI50 (SK-MEL-5) | GI50 (SNB-19) | GI50 (UACC-62) | GI50 (UO-31) | GI50 (A498) | GI50 (TK-10) |
| --- | --- | --- | --- | --- | --- | --- | --- | --- | --- | --- | --- | --- | --- | --- | --- | --- | --- | --- |
| CCN(CC)c1ccc(C(=C2C=CC(=[N+](CC)CC)C=C2)c2ccccc2)cc1 | 0.0352 µM (active) | 0.0121 µM (active) | 0.0307 µM (active) | < 0.01 µM (active) | < 0.01 µM (active) | 0.0689 µM (active) | 0.0163 µM (active) | 0.0177 µM (active) | 0.0353 µM (active) | < 0.01 µM (active) | 0.0366 µM (active) | 0.0279 µM (active) | 0.0166 µM (active) | 0.043 µM (active) | 0.0451 µM (active) | 0.0366 µM (active) |  |  |
| c1ccc2c3nc(C4CCCC4)nc-3c(NC3CCCC3)[nH]c2c1 | 8.07 µM (inactive) | 5.89 µM (inactive) | 19 µM (inactive) | 2.3 µM (inactive) | 4.6 µM (inactive) | 20.3 µM (inactive) | 2.98 µM (inactive) | 18.4 µM (inactive) | 14.4 µM (inactive) | 21.2 µM (inactive) | 16.9 µM (inactive) | 14 µM (inactive) | 6.98 µM (inactive) | 45.1 µM (inactive) | 14 µM (inactive) | 21.6 µM (inactive) | 21.3 µM (inactive) | 35.2 µM (inactive) |
| O=c1c2cc3ccccc3n2c(=O)c2cc3ccccc3n12 | > 100 µM (inactive) | > 100 µM (inactive) |  | > 100 µM (inactive) | > 100 µM (inactive) |  | > 100 µM (inactive) | > 100 µM (inactive) | > 100 µM (inactive) | > 100 µM (inactive) | > 100 µM (inactive) | > 100 µM (inactive) | > 100 µM (inactive) | > 100 µM (inactive) | > 100 µM (inactive) | > 100 µM (inactive) | > 100 µM (inactive) | > 100 µM (inactive) |
| Cc1cc(N(CCC#N)S(C)(=O)=O)ccc1C=O | > 100 µM (inactive) | > 100 µM (inactive) | > 100 µM (inactive) | > 100 µM (inactive) | > 100 µM (inactive) | > 100 µM (inactive) | > 100 µM (inactive) | > 100 µM (inactive) | > 100 µM (inactive) | > 100 µM (inactive) | > 100 µM (inactive) | > 100 µM (inactive) | > 100 µM (inactive) | > 100 µM (inactive) | > 100 µM (inactive) | > 100 µM (inactive) | > 100 µM (inactive) |  |
| O=P(c1ccccc1)(c1ccccc1)C1CC=C2CCCCCC2C1 (configuration not stated) | 22.6 µM (inactive) | 23.6 µM (inactive) | 24.1 µM (inactive) | 27.2 µM (inactive) | 37.2 µM (inactive) | 37.6 µM (inactive) | 21.8 µM (inactive) | 17.2 µM (inactive) | 26.2 µM (inactive) | 16.1 µM (inactive) | 23.3 µM (inactive) | 29.9 µM (inactive) | 19.2 µM (inactive) | 27.6 µM (inactive) | 23.9 µM (inactive) | 21.8 µM (inactive) | 35.9 µM (inactive) | 58.7 µM (inactive) |
| CCC(=O)Nc1nc2c(ncn2C2OC(COC(=O)CC)C(OC(=O)CC)C2OC(=O)CC)c(=O)[nH]1 (configuration not stated) | > 100 µM (inactive) |  |  | 46.6 µM (inactive) | > 100 µM (inactive) | > 100 µM (inactive) | > 100 µM (inactive) | > 100 µM (inactive) | > 100 µM (inactive) | > 100 µM (inactive) | > 100 µM (inactive) | > 100 µM (inactive) | > 100 µM (inactive) | > 100 µM (inactive) | > 100 µM (inactive) | > 100 µM (inactive) | > 100 µM (inactive) |  |
| O=c1c2cc(Br)ccc2[nH]c(=S)n1-c1ccc(Br)cc1 | 40.6 µM (inactive) |  | > 100 µM (inactive) | > 100 µM (inactive) | > 100 µM (inactive) | > 100 µM (inactive) |  | > 100 µM (inactive) | 76.4 µM (inactive) | > 100 µM (inactive) | > 100 µM (inactive) | 87.7 µM (inactive) |  | 47.9 µM (inactive) |  | > 100 µM (inactive) | > 100 µM (inactive) | > 100 µM (inactive) |
| CN(C)C(=N/O)/C(=N\O)N(C)C | > 100 µM (inactive) | > 100 µM (inactive) |  | > 100 µM (inactive) | > 100 µM (inactive) | > 100 µM (inactive) | > 100 µM (inactive) | > 100 µM (inactive) | > 100 µM (inactive) | > 100 µM (inactive) | > 100 µM (inactive) | > 100 µM (inactive) |  | > 100 µM (inactive) | > 100 µM (inactive) | > 100 µM (inactive) | > 100 µM (inactive) | > 100 µM (inactive) |
| O=CCCCC(Sc1ccccc1)Sc1ccccc1 | 19.1 µM (inactive) | 12 µM (inactive) | 23.5 µM (inactive) | 6.1 µM (inactive) |  | 19.9 µM (inactive) | 22.9 µM (inactive) | > 100 µM (inactive) | 21.7 µM (inactive) | 16 µM (inactive) | 18.4 µM (inactive) | 20.2 µM (inactive) | 15.8 µM (inactive) | 45.4 µM (inactive) | 7.67 µM (inactive) | 14.7 µM (inactive) | 38.8 µM (inactive) | 32.4 µM (inactive) |
| COC(=O)C(=O)C(C#N)c1ccc(CC#N)cc1 (configuration not stated) | > 100 µM (inactive) | > 100 µM (inactive) |  | > 100 µM (inactive) | > 100 µM (inactive) | > 100 µM (inactive) | > 100 µM (inactive) | > 100 µM (inactive) |  | > 100 µM (inactive) | > 100 µM (inactive) | > 100 µM (inactive) |  | > 100 µM (inactive) | > 100 µM (inactive) | > 100 µM (inactive) |  | > 100 µM (inactive) |
| O=C[C@]12CC=C3OC4OC5(CCCCC5)OC4[C@H]3[C@H]1C(=O)C=CC2=O (some centres not stated) | 9.84 µM (inactive) | 2.44 µM (inactive) |  | 0.406 µM (active) | 40.2 µM (inactive) |  | 19 µM (inactive) | 5.9 µM (inactive) | 16.7 µM (inactive) |  | 8.71 µM (inactive) | 33.7 µM (inactive) | 17.7 µM (inactive) | 28.4 µM (inactive) | 21.5 µM (inactive) | 12.1 µM (inactive) | > 100 µM (inactive) | 35.1 µM (inactive) |
| CCCC/C=C/C=C/C=C/CCCCCCCC(=O)OCC(COC(=O)CCCCCCC/C=C/C1C=CC(CCCC)C(C(=O)O)C1C(=O)O)OC(=O)CCCCCCC/C=C/C=C/C=C/CCCC.OCCNCO (configuration not stated) | 13.7 µM (inactive) | 11.9 µM (inactive) | 15.8 µM (inactive) | 21.9 µM (inactive) | 16.7 µM (inactive) | 19.8 µM (inactive) | 15.4 µM (inactive) |  | 17 µM (inactive) | 3.78 µM (inactive) | 17.5 µM (inactive) | 15.8 µM (inactive) | 17.4 µM (inactive) | 20.2 µM (inactive) | 14.8 µM (inactive) | 20 µM (inactive) | 15.3 µM (inactive) | 19.1 µM (inactive) |
| COc1ccc(/C=C2\SC(c3ccc(OC)cc3)N(NC(=O)Cc3ccccc3)C2=O)cc1 (configuration not stated) | > 100 µM (inactive) | > 100 µM (inactive) | > 100 µM (inactive) | 94.8 µM (inactive) | > 100 µM (inactive) | > 100 µM (inactive) | > 100 µM (inactive) | > 100 µM (inactive) | > 100 µM (inactive) | 76.4 µM (inactive) | > 100 µM (inactive) | > 100 µM (inactive) | > 100 µM (inactive) |  | > 100 µM (inactive) | > 100 µM (inactive) | > 100 µM (inactive) | > 100 µM (inactive) |
| O=C(CC1=Nc2nnc(-c3nnc4n3C(=O)C(CC(=O)c3cccnc3)=N4)n2C1=O)c1cccnc1 | > 100 µM (inactive) | > 100 µM (inactive) | > 100 µM (inactive) | > 100 µM (inactive) | > 100 µM (inactive) | > 100 µM (inactive) | > 100 µM (inactive) | > 100 µM (inactive) | > 100 µM (inactive) | > 100 µM (inactive) | > 100 µM (inactive) | > 100 µM (inactive) | > 100 µM (inactive) | > 100 µM (inactive) | > 100 µM (inactive) | > 100 µM (inactive) | > 100 µM (inactive) | > 100 µM (inactive) |
| CS(=O)(=O)N(CCC#N)c1ccc(/C=C2\N=C(c3ccccc3Cl)OC2=O)cc1 | > 100 µM (inactive) | > 100 µM (inactive) | > 100 µM (inactive) | > 100 µM (inactive) | > 100 µM (inactive) | > 100 µM (inactive) | > 100 µM (inactive) | > 100 µM (inactive) |  | > 100 µM (inactive) | > 100 µM (inactive) | > 100 µM (inactive) | > 100 µM (inactive) | > 100 µM (inactive) | > 100 µM (inactive) | > 100 µM (inactive) | > 100 µM (inactive) | > 100 µM (inactive) |
| C[C@@]12CCC(=O)c3coc(c31)C(=O)c1cc3c(cc12)C(=O)C=CC3=O [HELENAQUINONE] | 17.2 µM (inactive) |  | 16 µM (inactive) | 2.45 µM (inactive) | 19.7 µM (inactive) | 25.9 µM (inactive) | 14.5 µM (inactive) | 9.2 µM (inactive) | 18.2 µM (inactive) | 64.6 µM (inactive) | 18.8 µM (inactive) | 23.9 µM (inactive) | 15.1 µM (inactive) | > 100 µM (inactive) | 15.5 µM (inactive) | 17.2 µM (inactive) | > 100 µM (inactive) | 31 µM (inactive) |
